Data from patent publication US20110318768A1, “METHOD FOR DETERMINING SENSITIVITY OF TUMOR CELLS TO TYROSINE KINASE INHIBITOR AND COMPUTER PROGRAM PRODUCT” (SYSMEX CORPORATION, priority 2010, published 2011).
Where two headings read alike, the source gives them in different places.

Assays:
[1] = test system: AU565 breast cancer cell line; test: Growth inhibition by lapatinib (Cell Titer-Glo); type: cell-based; details: Homo sapiens
Protocol: (§1) The sensitivity of cell lines to EGFR/HER2 inhibitor was examined by culturing breast cancer cell lines shown in Table 3 in the presence of EGFR/HER2 inhibitor and examining growth inhibition effects on the cell lines.
(§2) The breast cancer cell lines shown in Table 3 were seeded in a 96 well assay plate (#3917: Costar) at 4,000 cells/well, and cultured at 37° C. After 24 hours, the medium was changed to a medium containing a DMSO solution of lapatinib ditosylate hydrate (hereafter also referred to as lapatinib; #L-4804: LC Laboratories) with various concentrations, and the culture was continued at 37° C. for 72 hours. The concentrations of lapatinib in the medium were 0 (control), 0.1, 1, 10, 30, 100, 300, 1,000 and 3,000, and 10,000 nM. The concentration of DMSO in the medium is constant (0.1 (v/v) %) in all of the wells. The cell number in the wells at 0 and 72 hours after exchange of the medium was measured using Cell Titer-Glo Luminescent Cell Viability Assay (#G7571: Promega KK.). The lapatinib concentration to yield half the cell number of the control in 72 hours was determined by fitting with a logistic curve and the concentration was IC50. The cell line whose IC50 was less than 1 μM was defined as a “sensitive line”, while the cell line whose IC50 was 1 μM or more was defined as an “insensitive line”.

[2] = test system: BT-20 breast cancer cell line; test: Growth inhibition by lapatinib (Cell Titer-Glo); type: cell-based; details: Homo sapiens
Protocol: as §1, §2

[3] = test system: BT-474 breast cancer cell line; test: Growth inhibition by lapatinib (Cell Titer-Glo); type: cell-based; details: Homo sapiens
Protocol: as §1, §2

[4] = test system: BT-483 breast cancer cell line; test: Growth inhibition by lapatinib (Cell Titer-Glo); type: cell-based; details: Homo sapiens
Protocol: as §1, §2

[5] = test system: BT-549 breast cancer cell line; test: Growth inhibition by lapatinib (Cell Titer-Glo); type: cell-based; details: Homo sapiens
Protocol: as §1, §2

[6] = test system: CAMA-1 breast cancer cell line; test: Growth inhibition by lapatinib (Cell Titer-Glo); type: cell-based; details: Homo sapiens
Protocol: as §1, §2

[7] = test system: HCC1419 breast cancer cell line; test: Growth inhibition by lapatinib (Cell Titer-Glo); type: cell-based; details: Homo sapiens
Protocol: as §1, §2

[8] = test system: HCC1428 breast cancer cell line; test: Growth inhibition by lapatinib (Cell Titer-Glo); type: cell-based; details: Homo sapiens
Protocol: as §1, §2

[9] = test system: HCC1569 breast cancer cell line; test: Growth inhibition by lapatinib (Cell Titer-Glo); type: cell-based; details: Homo sapiens
Protocol: as §1, §2

[10] = test system: HCC1806 breast cancer cell line; test: Growth inhibition by lapatinib (Cell Titer-Glo); type: cell-based; details: Homo sapiens
Protocol: as §1, §2

[11] = test system: HCC1937 breast cancer cell line; test: Growth inhibition by lapatinib (Cell Titer-Glo); type: cell-based; details: Homo sapiens
Protocol: as §1, §2

[12] = test system: HCC1954 breast cancer cell line; test: Growth inhibition by lapatinib (Cell Titer-Glo); type: cell-based; details: Homo sapiens
Protocol: as §1, §2

[13] = test system: HCC202 breast cancer cell line; test: Growth inhibition by lapatinib (Cell Titer-Glo); type: cell-based
Protocol: as §1, §2

[14] = test system: HS578T breast cancer cell line; test: Growth inhibition by lapatinib (Cell Titer-Glo); type: cell-based; details: Homo sapiens, Hs-578T
Protocol: as §1, §2

[15] = test system: MCF7 breast cancer cell line; test: Growth inhibition by lapatinib (Cell Titer-Glo); type: cell-based; details: Homo sapiens
Protocol: as §1, §2

[16] = test system: MDA-MB-157 breast cancer cell line; test: Growth inhibition by lapatinib (Cell Titer-Glo); type: cell-based; details: Homo sapiens
Protocol: as §1, §2

[17] = test system: MDA-MB-231 breast cancer cell line; test: Growth inhibition by lapatinib (Cell Titer-Glo); type: cell-based; details: Homo sapiens
Protocol: as §1, §2

[18] = test system: MDA-MB-415 breast cancer cell line; test: Growth inhibition by lapatinib (Cell Titer-Glo); type: cell-based; details: Homo sapiens
Protocol: as §1, §2

[19] = test system: MDA-MB-435S breast cancer cell line; test: Growth inhibition by lapatinib (Cell Titer-Glo); type: cell-based; details: Homo sapiens
Protocol: as §1, §2

[20] = test system: MDA-MB-436 breast cancer cell line; test: Growth inhibition by lapatinib (Cell Titer-Glo); type: cell-based; details: Homo sapiens
Protocol: as §1, §2

[21] = test system: MDA-MB-453 breast cancer cell line; test: Growth inhibition by lapatinib (Cell Titer-Glo); type: cell-based; details: Homo sapiens
Protocol: as §1, §2

[22] = test system: MDA-MB-468 breast cancer cell line; test: Growth inhibition by lapatinib (Cell Titer-Glo); type: cell-based; details: Homo sapiens
Protocol: as §1, §2

[23] = test system: SK-BR-3 breast cancer cell line; test: Growth inhibition by lapatinib (Cell Titer-Glo); type: cell-based; details: Homo sapiens
Protocol: as §1, §2

[24] = test system: T-47D breast cancer cell line; test: Growth inhibition by lapatinib (Cell Titer-Glo); type: cell-based; details: Homo sapiens, T47D
Protocol: as §1, §2

[25] = test system: UACC-812 breast cancer cell line; test: Growth inhibition by lapatinib (Cell Titer-Glo); type: cell-based; details: Homo sapiens
Protocol: as §1, §2

[26] = test system: UACC-893 breast cancer cell line; test: Growth inhibition by lapatinib (Cell Titer-Glo); type: cell-based; details: Homo sapiens
Protocol: as §1, §2

[27] = test system: ZR-75-1 breast cancer cell line; test: Growth inhibition by lapatinib (Cell Titer-Glo); type: cell-based; details: Homo sapiens
Protocol: as §1, §2

[28] = test system: ZR-75-30 breast cancer cell line; test: Growth inhibition by lapatinib (Cell Titer-Glo); type: cell-based; details: Homo sapiens
Protocol: as §1, §2

[29] = test system: BT-474; details: Konecny et al.; cited from earlier work
[30] = test system: SK-Br-3; details: Konecny et al.; cited from earlier work
[31] = test system: MDA-MB231; details: Konecny et al.; cited from earlier work
[32] = test system: MCF7; details: Konecny et al.; cited from earlier work
[33] = test system: T47D; details: Konecny et al.; cited from earlier work
[34] = 72 hours culture, read-out: IC50
[35] = read-out: Reference example 1 Sensitivity to lapatinib

IC50 [1, 34]: 0.157 µM | IC50 [1, 35]: < 1 µM | IC50 [2, 34]: > 10 µM | IC50 [2, 35]: ≥ 1 µM | IC50 [3, 34]: 0.08 µM | IC50 [3, 35]: < 1 µM | IC50 [4, 34]: > 10 µM | IC50 [4, 35]: ≥ 1 µM | IC50 [5, 34]: > 10 µM | IC50 [5, 35]: ≥ 1 µM | IC50 [6, 34]: > 10 µM | IC50 [6, 35]: ≥ 1 µM | IC50 [7, 34]: 0.124 µM | IC50 [7, 35]: < 1 µM | IC50 [8, 34]: > 10 µM | IC50 [8, 35]: ≥ 1 µM | IC50 [9, 34]: 4.82 µM | IC50 [9, 35]: ≥ 1 µM | IC50 [10, 34]: > 10 µM | IC50 [10, 35]: ≥ 1 µM | IC50 [11, 34]: > 10 µM | IC50 [11, 35]: ≥ 1 µM | IC50 [12, 34]: 1.47 µM | IC50 [12, 35]: ≥ 1 µM | IC50 [13, 34]: 2.47 µM | IC50 [13, 35]: ≥ 1 µM | IC50 [14, 34]: > 10 µM | IC50 [14, 35]: ≥ 1 µM | IC50 [15, 34]: > 10 µM | IC50 [15, 35]: ≥ 1 µM | IC50 [16, 34]: > 10 µM | IC50 [16, 35]: ≥ 1 µM | IC50 [17, 34]: > 10 µM | IC50 [17, 35]: ≥ 1 µM | IC50 [18, 34]: > 10 µM | IC50 [18, 35]: ≥ 1 µM | IC50 [19, 34]: > 10 µM | IC50 [19, 35]: ≥ 1 µM | IC50 [20, 34]: > 10 µM | IC50 [20, 35]: ≥ 1 µM | IC50 [21, 34]: 0.309 µM | IC50 [21, 35]: < 1 µM | IC50 [22, 34]: 3.78 µM | IC50 [22, 35]: ≥ 1 µM | IC50 [23, 34]: 0.315 µM | IC50 [23, 35]: < 1 µM | IC50 [24, 34]: > 10 µM | IC50 [24, 35]: ≥ 1 µM | IC50 [25, 34]: 0.49 µM | IC50 [25, 35]: < 1 µM | IC50 [26, 34]: 0.482 µM | IC50 [26, 35]: < 1 µM | IC50 [27, 34]: > 10 µM | IC50 [27, 35]: ≥ 1 µM | IC50 [28, 34]: 0.211 µM | IC50 [28, 35]: < 1 µM
SMILES: CS(=O)(=O)CCNCc1ccc(-c2ccc3ncnc(Nc4ccc(OCc5cccc(F)c5)c(Cl)c4)c3c2)o1 [lapatinib, N-(3-chloro-4-[[(3-fluorophenyl)methyl]oxy]phenyl)-6-[5-([[2-(methylsulfonyl)ethyl]amino]methyl)-2-furanyl]-4-quinazolineamine bis(4-methylbenzenesulfonate)monohydrate]
lapatinib sensitivity of cell line [29]: sensitive | lapatinib sensitivity of cell line [30]: sensitive | lapatinib sensitivity of cell line [31]: insensitive | lapatinib sensitivity of cell line [32]: insensitive | lapatinib sensitivity of cell line [33]: insensitive
